Reference: ChEMBL document CHEMBL5465560, “Selectivity Literature for EUbOPEN Chemogenomic Library” (2024)
Substitutions are numbered along the chain they refer to.

Legend:
[1] = biological target: Serine/threonine-protein kinase PRP4 homolog (Homo sapiens) (UniProt Q13523); experiment: Selectivity interaction (KinomeScan (DiscoverX)) EUB0001079a PRPF4B; conditions: at 1 µM
[2] = biological target: Tyrosine-protein kinase receptor UFO (Homo sapiens) (UniProt P30530); experiment: Selectivity interaction (Kinase panel (Z-LYTE Assay)) EUB0001632a AXL; conditions: at 10 µM
[3] = tested on: T1, Discoidin domain-containing receptor 2 (Homo sapiens), Q16832 [N456S]; experiment: (§1) Selectivity interaction (ProQinase) EUB0000171b DDR2
T1 sequence (whole entry): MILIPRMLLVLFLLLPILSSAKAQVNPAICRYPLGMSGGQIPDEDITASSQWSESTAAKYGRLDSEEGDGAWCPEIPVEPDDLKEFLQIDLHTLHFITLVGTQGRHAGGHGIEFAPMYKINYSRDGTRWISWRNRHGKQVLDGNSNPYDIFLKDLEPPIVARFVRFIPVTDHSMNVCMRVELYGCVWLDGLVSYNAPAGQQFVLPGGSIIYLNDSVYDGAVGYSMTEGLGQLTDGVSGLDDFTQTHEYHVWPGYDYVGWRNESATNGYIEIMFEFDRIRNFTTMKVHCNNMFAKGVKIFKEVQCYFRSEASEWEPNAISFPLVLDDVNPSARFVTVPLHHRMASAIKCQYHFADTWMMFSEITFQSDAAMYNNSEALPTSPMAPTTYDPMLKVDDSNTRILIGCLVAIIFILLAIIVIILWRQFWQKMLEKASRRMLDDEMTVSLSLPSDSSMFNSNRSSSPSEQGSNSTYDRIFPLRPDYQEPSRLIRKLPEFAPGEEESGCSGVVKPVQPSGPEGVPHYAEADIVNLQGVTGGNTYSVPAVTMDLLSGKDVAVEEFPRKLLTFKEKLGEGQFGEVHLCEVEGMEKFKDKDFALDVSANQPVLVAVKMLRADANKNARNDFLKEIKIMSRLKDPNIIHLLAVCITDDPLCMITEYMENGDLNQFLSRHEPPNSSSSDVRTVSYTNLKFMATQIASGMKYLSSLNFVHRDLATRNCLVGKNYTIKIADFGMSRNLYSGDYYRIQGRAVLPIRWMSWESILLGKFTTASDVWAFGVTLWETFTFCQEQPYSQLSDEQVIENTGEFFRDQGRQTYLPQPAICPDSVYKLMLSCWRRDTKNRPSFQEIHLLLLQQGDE

[4] = tested on: T2, Discoidin domain-containing receptor 2 (Homo sapiens), Q16832 [T654M]; experiment: as §1
T2 sequence (whole entry): T1 sequence (whole entry) with S456N, T654M

[5] = biological target: T3, Discoidin domain-containing receptor 2 (Homo sapiens) (UniProt Q16832); experiment: as §1
T3 sequence (whole entry): T1 sequence (whole entry) with S456N

Chain of Tyrosine-protein kinase receptor UFO (Homo sapiens) (P30530 whole entry, the tested form may be a part): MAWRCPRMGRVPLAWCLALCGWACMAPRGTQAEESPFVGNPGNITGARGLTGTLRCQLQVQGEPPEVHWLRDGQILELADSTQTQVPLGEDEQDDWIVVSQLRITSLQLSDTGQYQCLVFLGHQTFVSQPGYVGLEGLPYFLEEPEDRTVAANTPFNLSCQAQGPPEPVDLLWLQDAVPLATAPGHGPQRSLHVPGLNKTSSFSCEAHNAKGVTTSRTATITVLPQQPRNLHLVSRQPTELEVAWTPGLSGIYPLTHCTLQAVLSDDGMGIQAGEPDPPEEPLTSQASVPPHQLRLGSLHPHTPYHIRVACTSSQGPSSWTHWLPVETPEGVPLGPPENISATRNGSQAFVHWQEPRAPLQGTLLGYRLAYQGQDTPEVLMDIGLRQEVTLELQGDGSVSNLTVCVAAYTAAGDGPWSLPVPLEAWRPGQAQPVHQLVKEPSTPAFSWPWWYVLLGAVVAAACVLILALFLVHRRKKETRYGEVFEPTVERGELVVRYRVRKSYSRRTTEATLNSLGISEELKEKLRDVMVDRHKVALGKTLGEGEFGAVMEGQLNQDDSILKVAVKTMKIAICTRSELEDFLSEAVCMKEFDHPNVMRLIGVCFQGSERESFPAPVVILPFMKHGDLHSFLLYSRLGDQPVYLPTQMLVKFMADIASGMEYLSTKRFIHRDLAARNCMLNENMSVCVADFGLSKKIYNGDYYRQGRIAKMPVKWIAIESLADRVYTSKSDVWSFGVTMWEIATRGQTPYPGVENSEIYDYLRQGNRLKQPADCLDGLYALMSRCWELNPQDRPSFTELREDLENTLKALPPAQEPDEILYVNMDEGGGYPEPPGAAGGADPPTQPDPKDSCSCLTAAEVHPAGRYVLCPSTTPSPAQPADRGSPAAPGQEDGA
Chain of Serine/threonine-protein kinase PRP4 homolog (Homo sapiens) (Q13523 whole entry): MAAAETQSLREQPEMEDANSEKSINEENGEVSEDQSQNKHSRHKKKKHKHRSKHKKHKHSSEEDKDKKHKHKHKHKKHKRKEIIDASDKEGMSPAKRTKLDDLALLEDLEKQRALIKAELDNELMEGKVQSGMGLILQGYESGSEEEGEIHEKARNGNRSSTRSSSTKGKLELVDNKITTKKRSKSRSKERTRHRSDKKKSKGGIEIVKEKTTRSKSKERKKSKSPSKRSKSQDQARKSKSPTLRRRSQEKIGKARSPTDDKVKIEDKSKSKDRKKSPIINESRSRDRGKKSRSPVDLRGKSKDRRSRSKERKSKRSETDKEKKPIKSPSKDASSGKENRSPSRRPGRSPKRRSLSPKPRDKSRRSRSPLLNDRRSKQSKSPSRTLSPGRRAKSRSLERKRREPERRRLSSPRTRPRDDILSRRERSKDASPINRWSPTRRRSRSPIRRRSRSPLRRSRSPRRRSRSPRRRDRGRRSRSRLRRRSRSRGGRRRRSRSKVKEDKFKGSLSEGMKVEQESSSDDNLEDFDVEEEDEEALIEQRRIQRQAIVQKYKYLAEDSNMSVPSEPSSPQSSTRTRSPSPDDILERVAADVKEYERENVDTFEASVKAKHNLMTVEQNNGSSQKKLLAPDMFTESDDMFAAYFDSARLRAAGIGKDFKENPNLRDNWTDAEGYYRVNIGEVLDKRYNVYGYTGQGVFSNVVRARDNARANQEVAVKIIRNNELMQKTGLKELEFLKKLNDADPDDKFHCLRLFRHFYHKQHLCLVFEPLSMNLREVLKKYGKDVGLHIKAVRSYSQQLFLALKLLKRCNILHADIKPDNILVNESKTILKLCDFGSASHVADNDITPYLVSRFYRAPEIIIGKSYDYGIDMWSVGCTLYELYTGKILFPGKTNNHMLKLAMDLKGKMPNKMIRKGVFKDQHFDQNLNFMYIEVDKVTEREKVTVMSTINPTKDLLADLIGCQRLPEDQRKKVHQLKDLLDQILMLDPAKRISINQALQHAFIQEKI

Work on `Nc1cnc(N2CCc3cc(S(=O)(=O)Nc4c(F)cc(Cl)cc4F)cc(N4CCCC4=O)c32)nc1` [TP-020n] yielded a % of control [1] of 76%.
For `Cn1cc(-n2cnc3c(NCc4nc5cc(Cl)c(Cl)cc5[nH]4)nc(N4CCOCC4)nc32)cn1`, the % of control [2] was 2.06%.
`C=CC(=O)Nc1cccc(C(=O)Nc2ccc(Nc3cc(-c4[nH]c(SC)nc4C)ccn3)cc2)c1` gave a % of control ([3]; at 1 µM) of 88%, a % of control ([3]; at 5 µM) of 67% and a % of control ([4]; at 1 µM) of 89%. For the same compound, the % of control ([4]; at 5 µM) was 70%, the % of control ([5]; at 1 µM) was 90% and the % of control ([5]; at 5 µM) was 76%.
